# Reference: patent publication US9113629B2, “4-amino-6-(4-substituted-phenyl)-picolinates and 6-amino-2-(4-substituted-phenyl)-pyrimidine-4-carboxylates and their use as herbicides” (DOW AGROSCIENCES LLC, priority 2013, dated 2015)
# Tests used:
# [1] = test system: SETVI: green foxtail (Setaria viridis); assay: Post-emergent Test III, herbicidal activity in wheat and barley; format: in vivo
# Outline: (§1)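 Plants at the second to third true-leaf stage, grown in a greenhouse at about 18/17 °C with a 14 h photoperiod, were sprayed post-emergence at 187 L/ha with the high rate and ½× to 1/16× serial dilutions in an acetone/DMSO/crop-oil/surfactant carrier. Injury was rated visually at 21 d on a 0–100% scale, and GR20–GR90 were derived by probit analysis.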
# [2] = test system: BROTE: downy brome (Bromus tectorum); assay: as above; format: in vivo; conditions: for pest or weed control at 35 g/ha: 35 g ai/ha; for pest or weed control at 70 g/ha: 70 g ai/ha; for GR50 BROTE / GR80 BROTE: probit analysis, 21 days after application; for GR50 BROTE: dose for growth reduction of 50 percent; for GR80 BROTE: dose for growth reduction of 80 percent
# Outline: as §1
# [3] = test system: LOLSS: ryegrass including, Italian ryegrass (Lolium multiflorum), rigid ryegrass (Lolium rigidum), annual ryegrass (Lolium multiflorum subsp. Gaudini); assay: as above; format: in vivo; conditions: probit analysis, 21 days after application; for GR50 LOLSS: dose for growth reduction of 50 percent; for GR80 LOLSS: dose for growth reduction of 80 percent
# Outline: as §1
# [4] = test system: MATSS: scented mayweed (Matricaria chamomilla), pineappleweed (Matricaria matricarioides); assay: as above; format: in vivo; conditions: for pest or weed control at 35 g/ha: 35 g ai/ha; for pest or weed control at 70 g/ha: 70 g ai/ha; for GR50 MATSS / GR80 MATSS: probit analysis, 21 days after application; for GR50 MATSS: dose for growth reduction of 50 percent; for GR80 MATSS: dose for growth reduction of 80 percent
# Outline: as §1
# [5] = test system: TRZSS: wheat, including spring and winter (Triticum aestivum); assay: as above; format: in vivo
# Outline: as §1
# [6] = test system: ALOMY: black-grass (Alopecurus myosuroides); assay: as above; format: in vivo; conditions: for pest or weed control at 35 g/ha: 35 g ai/ha; for pest or weed control at 70 g/ha: 70 g ai/ha; for GR50 ALOMY / GR80 ALOMY: probit analysis, 21 days after application; for GR50 ALOMY: dose for growth reduction of 50 percent; for GR80 ALOMY: dose for growth reduction of 80 percent
# Outline: as §1
# [7] = test system: HORSS: barley, including spring and winter (Hordeum vulgare); assay: as above; format: in vivo
# Outline: as §1
# [8] = test system: KCHSC: kochia (Kochia scoparia); assay: as above; format: in vivo; conditions: for pest or weed control at 35 g/ha: 35 g ai/ha; for pest or weed control at 70 g/ha: 70 g ai/ha; for GR50 KCHSC / GR80 KCHSC: probit analysis, 21 days after application; for GR50 KCHSC: dose for growth reduction of 50 percent; for GR80 KCHSC: dose for growth reduction of 80 percent
# Outline: as §1
# [9] = test system: APESV: bentgrass (Apera spica-venti); assay: as above; format: in vivo; conditions: for pest or weed control at 35 g/ha: 35 g ai/ha; for pest or weed control at 70 g/ha: 70 g ai/ha; for GR50 APESV / GR80 APESV: probit analysis, 21 days after application; for GR50 APESV: dose for growth reduction of 50 percent; for GR80 APESV: dose for growth reduction of 80 percent
# Outline: as §1
# [10] = as above; format: in vivo, Lolium multiflorum, Lolium rigidum; conditions: Lolium multiflorum, post-emergence, 504 h, read-out: Visual Growth Reduction (%) 21 Days After Application LOLSS; for pest or weed control at 35 g/ha: 35 g ai/ha; for pest or weed control at 70 g/ha: 70 g ai/ha
# Outline: as §1
# [11] = Bromus tectorum, post-emergence, 504 h, read-out: Visual Growth Reduction (%) 21 Days After Application BROTE
# [12] = Matricaria chamomilla, post-emergence, 504 h, read-out: Visual Growth Reduction (%) 21 Days After Application MATSS
# [13] = probit analysis, dose for growth reduction of 20 percent, 21 days after application, crop
# [14] = Alopecurus myosuroides, post-emergence, 504 h, read-out: Visual Growth Reduction (%) 21 Days After Application ALOMY
# [15] = Bassia scoparia, post-emergence, 504 h, read-out: Visual Growth Reduction (%) 21 Days After Application KCHSC
# [16] = Apera spica-venti, post-emergence, 504 h, read-out: Visual Growth Reduction (%) 21 Days After Application APESV
smiles,measurement,setting,value
COC(=O)c1nc(-c2ccc(Cl)c(F)c2)c(F)c(N)c1Cl [Compound 216],pest or weed control at 35 g/ha,"[1]; Setaria viridis, post-emergence, 504 h, 35 g ai/ha, read-out: Visual Growth Reduction (%) 21 Days After Application SETVI",60 to 74%
same,pest or weed control at 70 g/ha,"[1]; Setaria viridis, post-emergence, 504 h, 70 g ai/ha, read-out: Visual Growth Reduction (%) 21 Days After Application SETVI",75 to 84%
same,pest or weed control at 140 g/ha,"[1]; Setaria viridis, post-emergence, 504 h, 140 g ai/ha, read-out: Visual Growth Reduction (%) 21 Days After Application SETVI",85 to 94%
same,GR50 SETVI,"[1]; probit analysis, dose for growth reduction of 50 percent, 21 days after application",20 g ai/ha
same,GR80 SETVI,"[1]; probit analysis, dose for growth reduction of 80 percent, 21 days after application",64 g ai/ha
same,pest or weed control at 35 g/ha,[2]; [11],30 to 44%
same,pest or weed control at 70 g/ha,[2]; [11],45 to 59%
same,pest or weed control at 140 g/ha,"[2]; Bromus tectorum, post-emergence, 504 h, 140 g ai/ha, read-out: Visual Growth Reduction (%) 21 Days After Application BROTE",45 to 59%
same,GR50 BROTE,[2],136 g ai/ha
same,GR80 BROTE,[2],>140 g ai/ha
same,GR50 LOLSS,[3],137 g ai/ha
same,GR80 LOLSS,[3],>140 g ai/ha
same,pest or weed control at 35 g/ha,[4]; [12],75 to 84%
same,pest or weed control at 70 g/ha,[4]; [12],75 to 84%
same,pest or weed control at 140 g/ha,"[4]; Matricaria chamomilla, post-emergence, 504 h, 140 g ai/ha, read-out: Visual Growth Reduction (%) 21 Days After Application MATSS",85 to 94%
same,GR50 MATSS,[4],10 g ai/ha
same,GR80 MATSS,[4],62 g ai/ha
same,pest or weed control at 35 g/ha,"[5]; Triticum aestivum, post-emergence, 504 h, 35 g ai/ha, read-out: Visual Growth Reduction (%) 21 Days After Application TRZSS",75 to 84%
same,pest or weed control at 70 g/ha,"[5]; Triticum aestivum, post-emergence, 504 h, 70 g ai/ha, read-out: Visual Growth Reduction (%) 21 Days After Application TRZSS",85 to 94%
same,pest or weed control at 140 g/ha,"[5]; Triticum aestivum, post-emergence, 504 h, 140 g ai/ha, read-out: Visual Growth Reduction (%) 21 Days After Application TRZSS",85 to 94%
same,GR20 TRZSS,[5]; [13],1 g ai/ha
same,pest or weed control at 35 g/ha,[6]; [14],45 to 59%
same,pest or weed control at 70 g/ha,[6]; [14],60 to 74%
same,pest or weed control at 140 g/ha,"[6]; Alopecurus myosuroides, post-emergence, 504 h, 140 g ai/ha, read-out: Visual Growth Reduction (%) 21 Days After Application ALOMY",75 to 84%
same,GR50 ALOMY,[6],54 g ai/ha
same,GR80 ALOMY,[6],>140 g ai/ha
same,pest or weed control at 35 g/ha,"[7]; Hordeum vulgare, post-emergence, 504 h, 35 g ai/ha, read-out: Visual Growth Reduction (%) 21 Days After Application HORSS",85 to 94%
same,pest or weed control at 70 g/ha,"[7]; Hordeum vulgare, post-emergence, 504 h, 70 g ai/ha, read-out: Visual Growth Reduction (%) 21 Days After Application HORSS",85 to 94%
same,pest or weed control at 140 g/ha,"[7]; Hordeum vulgare, post-emergence, 504 h, 140 g ai/ha, read-out: Visual Growth Reduction (%) 21 Days After Application HORSS",85 to 94%
same,GR20 HORSS,[7]; [13],1 g ai/ha
same,pest or weed control at 35 g/ha,[8]; [15],95 to 100%
same,pest or weed control at 70 g/ha,[8]; [15],95 to 100%
same,pest or weed control at 140 g/ha,"[8]; Bassia scoparia, post-emergence, 504 h, 140 g ai/ha, read-out: Visual Growth Reduction (%) 21 Days After Application KCHSC",95 to 100%
same,GR50 KCHSC,[8],1 g ai/ha
same,GR80 KCHSC,[8],2 g ai/ha
same,pest or weed control at 35 g/ha,[9]; [16],85 to 94%
same,pest or weed control at 70 g/ha,[9]; [16],85 to 94%
same,pest or weed control at 140 g/ha,"[9]; Apera spica-venti, post-emergence, 504 h, 140 g ai/ha, read-out: Visual Growth Reduction (%) 21 Days After Application APESV",95 to 100%
same,GR50 APESV,[9],6 g ai/ha
same,GR80 APESV,[9],20 g ai/ha
same,pest or weed control at 35 g/ha,[10],0 to 29%
same,pest or weed control at 70 g/ha,[10],30 to 44%
same,pest or weed control at 140 g/ha,[10]; 140 g ai/ha,45 to 59%
Nc1c(F)c(-c2ccc(C(F)(F)F)c(F)c2F)nc(C(=O)O)c1Cl [Compound 167],pest or weed control at 35 g/ha,[2]; [11],30 to 44%
same,pest or weed control at 70 g/ha,[2]; [11],75 to 84%
same,GR50 BROTE,[2],43 g ai/ha
same,GR80 BROTE,[2],81 g ai/ha
same,GR50 LOLSS,[3],>140 g ai/ha
same,GR80 LOLSS,[3],>140 g ai/ha
same,pest or weed control at 35 g/ha,[4]; [12],75 to 84%
same,pest or weed control at 70 g/ha,[4]; [12],85 to 94%
same,GR50 MATSS,[4],24 g ai/ha
same,GR80 MATSS,[4],48 g ai/ha
same,pest or weed control at 35 g/ha,[6]; [14],30 to 44%
same,pest or weed control at 70 g/ha,[6]; [14],60 to 74%
same,GR50 ALOMY,[6],57 g ai/ha
same,GR80 ALOMY,[6],119 g ai/ha
same,pest or weed control at 35 g/ha,[8]; [15],60 to 74%
same,pest or weed control at 70 g/ha,[8]; [15],75 to 84%
same,GR50 KCHSC,[8],23 g ai/ha
same,GR80 KCHSC,[8],52 g ai/ha
same,pest or weed control at 35 g/ha,[9]; [16],75 to 84%
same,pest or weed control at 70 g/ha,[9]; [16],85 to 94%
same,GR50 APESV,[9],20 g ai/ha
same,GR80 APESV,[9],46 g ai/ha
same,pest or weed control at 35 g/ha,[10],0 to 29%
same,pest or weed control at 70 g/ha,[10],0 to 29%
